According to article PMC3411462, “Long-acting κ opioid antagonists nor-BNI, GNTI and JDTic: pharmacokinetics in mice and lipophilicity” (BMC Pharmacology, 2012):
“Also recorded” adds a separate entry of the source. Where two headings read alike, the source gives them in different places.

Assays:
Assay type in all cases: in vitro ADME
[1] = Brain homogenate binding (unbound fraction by ultracentrifugation)
Experimental: Unbound fractions in brain homogenate and plasma were determined by ultracentrifugation as described previously. Briefly, drug-spiked matrices (5 μM drug in plasma or brain homogenate) were centrifuged at 600,000 g for 5 h at 37 °C (plasma) or 5 °C (brain). Aliquots of the middle (water) layer were added to an equal volume of blank matrix and extracted with 5 volumes of acetonitrile containing internal standard. Aliquots of the original spiked matrix were mixed with an equal volume of blank matrix and 2 volumes of plasma ultrafiltrate (plasma) or phosphate-buffered saline (tissue) and extracted with 10 volumes of acetonitrile. Extracts were centrifuged and analyzed by LC-MS-MS. Fraction unbound was calculated from the ratio of concentration in the water layer to that in the original spiked matrix, corrected for dilution as described previously. Based on previous results for basic drugs, in vivo free fraction in brain was assumed to be at least 3-fold lower than the in vitro free fraction in brain homogenate.

[2] = biological target: T1, P-gp (human MDR1) (Homo sapiens, UniProt P08183); experiment: LLC-PK1-MDR1 cell permeation and efflux; settings: for Papp A→B at 120 min, 5 μM / Papp B→A at 120 min, 5 μM: pig (LLC-PK1 cells) transfected with human MDR1, LLC-PK1, 0.1% BSA, n = 2; for Papp A→B at 120 min, 5 μM: apical to basolateral; for Papp B→A at 120 min, 5 μM: basolateral to apical; for efflux ratio at 120 min, 5 μM: pig (LLC-PK1 cells) transfected with human MDR1, LLC-PK1-MDR1 monolayers, read-out: Efflux ratio (B → A/A → B)
T1 construct: expressed in transfected cells; host or cells: LLC-PK1 (pig kidney epithelial cells) transfected with human MDR1 at Amgen
T1 sequence (P08183 whole entry): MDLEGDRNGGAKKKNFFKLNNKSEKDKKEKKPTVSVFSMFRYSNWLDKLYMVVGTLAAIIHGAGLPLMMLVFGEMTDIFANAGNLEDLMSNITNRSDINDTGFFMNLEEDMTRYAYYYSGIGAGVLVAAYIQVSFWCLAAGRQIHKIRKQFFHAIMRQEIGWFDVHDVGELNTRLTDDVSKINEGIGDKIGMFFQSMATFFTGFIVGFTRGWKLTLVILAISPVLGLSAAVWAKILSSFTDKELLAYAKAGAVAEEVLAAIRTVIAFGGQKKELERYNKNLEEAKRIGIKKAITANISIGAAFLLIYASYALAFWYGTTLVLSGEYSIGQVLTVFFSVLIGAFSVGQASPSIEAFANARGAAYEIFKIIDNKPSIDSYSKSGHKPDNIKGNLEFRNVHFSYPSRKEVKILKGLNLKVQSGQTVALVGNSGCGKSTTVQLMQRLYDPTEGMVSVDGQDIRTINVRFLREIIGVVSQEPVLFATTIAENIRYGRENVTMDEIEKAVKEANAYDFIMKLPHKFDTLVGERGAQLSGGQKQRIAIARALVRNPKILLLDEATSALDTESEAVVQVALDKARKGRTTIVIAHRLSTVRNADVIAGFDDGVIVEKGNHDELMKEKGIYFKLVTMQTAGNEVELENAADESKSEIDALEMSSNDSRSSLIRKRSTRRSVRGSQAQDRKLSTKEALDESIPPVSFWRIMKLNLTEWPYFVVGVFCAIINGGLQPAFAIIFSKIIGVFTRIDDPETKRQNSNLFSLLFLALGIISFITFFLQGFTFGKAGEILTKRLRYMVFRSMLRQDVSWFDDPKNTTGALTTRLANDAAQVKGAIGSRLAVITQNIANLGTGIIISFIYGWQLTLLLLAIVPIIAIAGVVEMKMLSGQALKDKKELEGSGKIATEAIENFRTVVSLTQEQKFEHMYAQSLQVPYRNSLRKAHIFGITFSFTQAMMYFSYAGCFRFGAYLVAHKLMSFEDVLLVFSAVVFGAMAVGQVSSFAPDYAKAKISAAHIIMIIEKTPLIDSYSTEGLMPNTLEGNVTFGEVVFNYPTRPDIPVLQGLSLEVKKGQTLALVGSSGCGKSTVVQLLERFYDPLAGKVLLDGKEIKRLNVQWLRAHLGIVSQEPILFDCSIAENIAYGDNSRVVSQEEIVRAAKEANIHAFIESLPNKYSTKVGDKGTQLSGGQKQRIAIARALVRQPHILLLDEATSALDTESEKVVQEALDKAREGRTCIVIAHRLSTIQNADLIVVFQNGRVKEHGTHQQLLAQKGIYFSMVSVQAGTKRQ
Experimental: (§1) Pig kidney epithelial cells (LLC-PK1) were obtained from American Type Culture Collection (Manassas, VA). Transfection with human MDR1 gene was conducted at Amgen (Thousand Oaks, CA). Bi-directional permeation assays were performed as described previously. […] Cells were seeded onto Transwell filter membranes (0.4 μm pore size, surface area = 0.7 cm2) at a density of 200,000 cells/well. Compound incubations (in duplicate) were performed 5 days post-seeding. To determine efflux, compounds were tested at 5 μM in the presence of 0.1% BSA. […] Samples were analyzed by LC-MS-MS.

[3] = biological target: T2, human P-gp (Homo sapiens, UniProt P08183); experiment: LLC-PK1-MDR1 cell permeation and efflux; settings: cells expressing human P-gp
T2 construct: expressed in transfected cells; host or cells: LLC-PK1 (pig kidney epithelial cells) transfected with human MDR1 at Amgen
T2 sequence (P08183 whole entry): as above
Experimental: as §1

[4] = 5 μM drug, mean, n = 3, corrected for dilution, read-out: Fraction unbound, Brain homogenate
[5] = Brain homogenate, read-out: % free (uncorrected)

Row | Compound | fraction unbound at 5 h, 5 μM [1, 4] | fraction unbound at 5 h, 5 μM [1, 5] | fraction unbound at 5 h, 5 μM ([1]; mouse, assumed at least 3-fold lower than in homogenate, read-out: Fu,brain (in vivo est.)) | Papp A→B at 120 min, 5 μM [2] | Papp B→A at 120 min, 5 μM [2] | Active transport / P-gp-mediated efflux [3] | efflux ratio at 120 min, 5 μM [2] | fraction unbound at 5 h, 5 μM ([1]; assumed at least 3-fold lower than in homogenate, read-out: Fu,brain (in vivo est.))
1 | Oc1ccc2c3c1O[C@H]1c4[nH]c5c(c4C[C@@]4(O)[C@@H](C2)N(CC2CC2)CC[C@]314)C[C@@]1(O)[C@H]2Cc3ccc(O)c4c3[C@@]1(CCN2CC1CC1)[C@H]5O4 [nor-BNI, norbinaltorphimine] | 0.12 | 0.28 | < 0.04 | 0.2 ×10⁻⁶ cm/s | 0.3 ×10⁻⁶ cm/s | did not; also recorded: No active transport | – | –
2 | N=C(N)Nc1ccc2[nH]c3c(c2c1)C[C@@]1(O)[C@H]2Cc4ccc(O)c5c4[C@@]1(CCN2CC1CC1)[C@H]3O5 [GNTI, 5’-guanidinonaltrindole] | 0.07 | 0.19 | – | 0.4 ×10⁻⁶ cm/s | 0.6 ×10⁻⁶ cm/s | did not; also recorded: No active transport | 1.5 | –
3 | CC(C)[C@@H](CN1CC[C@@](C)(c2cccc(O)c2)[C@@H](C)C1)NC(=O)[C@H]1Cc2ccc(O)cc2CN1 [JDTic, (3R)-7-Hydroxy-N-((1S)-1-{[(3R,4R)-4-(3-hydroxyphenyl)-3,4-dimethyl-1-piperidinyl]methyl}-2-methylpropyl)-1,2,3,4-tetrahydro-3-isoquinolinecarboxamide] | 0.07 | 0.18 | – | 0.5 ×10⁻⁶ cm/s | 24 ×10⁻⁶ cm/s | showed P-gp-mediated efflux; also recorded: very high efflux ratio | 48 | < 0.0233
